Molecular target: T1, HmtS (Streptomyces himastatinicus, UniProt G0LWB2)
T1 sequence (G0LWB2 2-397): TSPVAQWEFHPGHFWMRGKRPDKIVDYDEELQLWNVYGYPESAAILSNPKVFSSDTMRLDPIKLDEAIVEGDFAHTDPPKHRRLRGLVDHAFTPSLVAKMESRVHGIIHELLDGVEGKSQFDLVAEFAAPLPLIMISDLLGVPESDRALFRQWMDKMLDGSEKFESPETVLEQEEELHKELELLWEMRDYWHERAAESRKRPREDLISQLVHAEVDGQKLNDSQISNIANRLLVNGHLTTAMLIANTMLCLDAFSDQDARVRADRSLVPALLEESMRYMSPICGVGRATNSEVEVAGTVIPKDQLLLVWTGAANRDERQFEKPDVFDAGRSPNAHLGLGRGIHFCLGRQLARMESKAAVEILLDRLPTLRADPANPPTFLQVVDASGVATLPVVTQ
Assay: microscale thermophoresis, NT647-labelled enzyme
Format: binding

`Cc1cc2nc3c(=O)[nH]c(=O)nc-3n(C[C@H](O)[C@H](O)[C@H](O)COP(=O)(O)OP(=O)(O)OC[C@H]3O[C@@H](n4cnc5c(N)ncnc54)[C@H](O)[C@@H]3O)c2cc1C` [FAD] and `Cc1cc2nc3c(=O)[nH]c(=O)nc-3n(C[C@H](O)[C@H](O)[C@H](O)COP(=O)(O)O)c2cc1C` [FMN] are within 1.5-fold of each other in Kd: 43 µM for the first, 40 µM for the second.

Compared with `NC(=O)C1=CN([C@@H]2O[C@H](COP(=O)(O)OP(=O)(O)OC[C@H]3O[C@@H](n4cnc5c(N)ncnc54)[C@H](OP(=O)(O)O)[C@@H]3O)[C@@H](O)[C@H]2O)C=CC1` [NADPH], `Cc1cc2nc3c(=O)[nH]c(=O)nc-3n(C[C@H](O)[C@H](O)[C@H](O)CO)c2cc1C` [riboflavin] is 44-fold lower in Kd: 83 µM for the first, 1.9 µM for the second. The second binds more tightly here.

Source: paper doi:10.1101/801928v2 (biorxiv, 2019)
